Measured values: patent US11464782B2, “Method of treating pain or interstitial cystitis using indole compound” (Japan Tobacco Inc., priority 2018, dated 2022)
Read-outs that look alike come from different tables or passages of the source.

Experiments:
[1] = Trough plasma concentrations of Compound A in the human clinical study; type: in vivo; conditions: for concentration at 2 week / concentration at 4 week / concentration at 8 week / concentration at 12 week: human, plasma, oral, human plasma
Procedure: Compound A was evaluated in a multicenter, randomized, double-blind, placebo-controlled, parallel-group study in subjects with active rheumatoid arthritis. Subjects were randomized to receive orally placebo or an amount of monohydrochloride Compound A sufficient to provide 50 mg, 100 mg, 150 mg, or 200 mg of free form, once daily for 12 weeks.
In the human clinical study described in Example 3, blood samples were collected from subjects prior to dosing at weeks 2, 4, 8, and 12 for the quantification of plasma Compound A levels.

CIA model rats = experiment: Analgesic effect in rat collagen-induced arthritis (CIA) model, paw withdrawal threshold by Randall-Selitto method; type: in vivo; conditions: rats with CIA; 10 or 30 mg/kg oral once per day Days 22-28; measured Day 28
Procedure: The analgesic effect of Compound A on hypersensitivity to pain during the onset of arthritis in a rat CIA model was evaluated. Hypersensitivity to pain was evaluated using the paw withdrawal threshold (PWT) in relation to mechanical stimulus using the Randall-Selitto method.
Female LEW/CrlCrlj rats (Charles River Laboratories Japan, Inc.) were used for the experiment. A monohydrochloride of Compound A was dissolved in 0.5% methyl cellulose (MC) to prepare 2 mg/mL and 6 mg/mL solutions of Compound A. Type II collagen derived from joint bovine cartilage (Collagen Research Center) was dissolved in acetic acid to prepare a 2 mg/mL type II collagen solution. Equal volumes of the 2 mg/mL type II collagen solution and incomplete Freund's adjuvant were mixed to prepare a 1 mg/mL type II collagen emulsion.
On Day 1, the type II collagen emulsion was intradermally injected into the animals in the vehicle group, the Compound A 10 mg/kg administration group, and the Compound A 30 mg/kg administration group. On Day 8, the type II collagen emulsion was intradermally injected into the animals in the vehicle group, the Compound A 10 mg/kg administration group, and the Compound A 30 mg/kg administration group. […] On Day 28, the analgesic effect was measured using a Randall-Selitto analgesy-meter (TK-201, UNICOM). The means values and standard deviations of the PWT values for each group were calculated.

C[C@@H](C(=O)N(C)c1ccc2cc(-c3n[nH]c4c3CCC(C)(C)C4)[nH]c2c1)N1CCOCC1 [Compound A, N-[2-(6,6-dimethyl-4,5,6,7-tetrahydro-1H-indazol-3-yl)-1H-indol-6-yl]-N-methyl-(2S)-2-(morpholin-4-yl)propanamide]
Trough concentration, mean ratio relative to Compound A 50 mg QD at the same visit ([1]; 50 mg QD, 2 week): 1.00
Trough concentration, mean ratio relative to Compound A 50 mg QD at the same visit ([1]; 50 mg QD, 4 week): 1.00
Trough concentration, mean ratio relative to Compound A 50 mg QD at the same visit ([1]; 50 mg QD, 8 week): 1.00
Trough concentration, mean ratio relative to Compound A 50 mg QD at the same visit ([1]; 50 mg QD, 12 week): 1.00
dose dependence and maintenance of mean trough concentrations ([1]; 50 mg to 200 mg once daily, weeks 2-12): Mean trough concentrations increased as dose increased from 50 mg to 200 mg and trough concentrations were maintained throughout the study
Trough concentration, mean ratio relative to Compound A 50 mg QD at the same visit ([1]; 100 mg QD, 2 week): 1.52
Trough concentration, mean ratio relative to Compound A 50 mg QD at the same visit ([1]; 100 mg QD, 4 week): 1.60
Trough concentration, mean ratio relative to Compound A 50 mg QD at the same visit ([1]; 100 mg QD, 8 week): 1.77
Trough concentration, mean ratio relative to Compound A 50 mg QD at the same visit ([1]; 100 mg QD, 12 week): 1.50
Trough concentration, mean ratio relative to Compound A 50 mg QD at the same visit ([1]; 150 mg QD, 2 week): 2.51
Trough concentration, mean ratio relative to Compound A 50 mg QD at the same visit ([1]; 150 mg QD, 4 week): 2.28
Trough concentration, mean ratio relative to Compound A 50 mg QD at the same visit ([1]; 150 mg QD, 8 week): 2.10
Trough concentration, mean ratio relative to Compound A 50 mg QD at the same visit ([1]; 150 mg QD, 12 week): 2.63
Trough concentration, mean ratio relative to Compound A 50 mg QD at the same visit ([1]; 200 mg QD, 2 week): 3.89
Trough concentration, mean ratio relative to Compound A 50 mg QD at the same visit ([1]; 200 mg QD, 4 week): 3.33
Trough concentration, mean ratio relative to Compound A 50 mg QD at the same visit ([1]; 200 mg QD, 8 week): 3.11
Trough concentration, mean ratio relative to Compound A 50 mg QD at the same visit ([1]; 200 mg QD, 12 week): 2.98
concentration at 2 week ([1]; 50 mg, 50 mg QD, 2 week, BLQ (<2.00 ng/mL) set to 0, read-out: Trough Plasma Concentrations, Min-Max): 0 to 387 ng/mL
concentration at 2 week ([1]; 50 mg, 50 mg QD, 2 week, read-out: Trough Plasma Concentrations, Mean (SD)): 134 ng/mL
concentration at 2 week ([1]; 50 mg, 50 mg QD, 2 week, read-out: Trough Plasma Concentrations, Median): 118 ng/mL
concentration at 4 week ([1]; 50 mg, 50 mg QD, 4 week, BLQ (<2.00 ng/mL) set to 0, read-out: Trough Plasma Concentrations, Min-Max): 0 to 356 ng/mL
concentration at 4 week ([1]; 50 mg, 50 mg QD, 4 week, read-out: Trough Plasma Concentrations, Mean (SD)): 135 ng/mL
concentration at 4 week ([1]; 50 mg, 50 mg QD, 4 week, read-out: Trough Plasma Concentrations, Median): 119 ng/mL
concentration at 8 week ([1]; 50 mg, 50 mg QD, 8 week, BLQ (<2.00 ng/mL) set to 0, read-out: Trough Plasma Concentrations, Min-Max): 0 to 436 ng/mL
concentration at 8 week ([1]; 50 mg, 50 mg QD, 8 week, read-out: Trough Plasma Concentrations, Mean (SD)): 129 ng/mL
concentration at 8 week ([1]; 50 mg, 50 mg QD, 8 week, read-out: Trough Plasma Concentrations, Median): 108 ng/mL
concentration at 12 week ([1]; 50 mg, 50 mg QD, 12 week, BLQ (<2.00 ng/mL) set to 0, read-out: Trough Plasma Concentrations, Min-Max): 0 to 531 ng/mL
concentration at 12 week ([1]; 50 mg, 50 mg QD, 12 week, read-out: Trough Plasma Concentrations, Mean (SD)): 119 ng/mL
concentration at 12 week ([1]; 50 mg, 50 mg QD, 12 week, read-out: Trough Plasma Concentrations, Median): 100 ng/mL
concentration at 2 week ([1]; 100 mg, 100 mg QD, 2 week, BLQ (<2.00 ng/mL) set to 0, read-out: Trough Plasma Concentrations, Min-Max): 0 to 825 ng/mL
concentration at 2 week ([1]; 100 mg, 100 mg QD, 2 week, read-out: Trough Plasma Concentrations, Mean (SD)): 204 ng/mL
concentration at 2 week ([1]; 100 mg, 100 mg QD, 2 week, read-out: Trough Plasma Concentrations, Median): 191 ng/mL
concentration at 4 week ([1]; 100 mg, 100 mg QD, 4 week, BLQ (<2.00 ng/mL) set to 0, read-out: Trough Plasma Concentrations, Min-Max): 0 to 650 ng/mL
concentration at 4 week ([1]; 100 mg, 100 mg QD, 4 week, read-out: Trough Plasma Concentrations, Mean (SD)): 216 ng/mL
concentration at 4 week ([1]; 100 mg, 100 mg QD, 4 week, read-out: Trough Plasma Concentrations, Median): 215 ng/mL
concentration at 8 week ([1]; 100 mg, 100 mg QD, 8 week, BLQ (<2.00 ng/mL) set to 0, read-out: Trough Plasma Concentrations, Min-Max): 0 to 785 ng/mL
concentration at 8 week ([1]; 100 mg, 100 mg QD, 8 week, read-out: Trough Plasma Concentrations, Mean (SD)): 228 ng/mL
concentration at 8 week ([1]; 100 mg, 100 mg QD, 8 week, read-out: Trough Plasma Concentrations, Median): 194 ng/mL
concentration at 12 week ([1]; 100 mg, 100 mg QD, 12 week, BLQ (<2.00 ng/mL) set to 0, read-out: Trough Plasma Concentrations, Min-Max): 0 to 728 ng/mL
concentration at 12 week ([1]; 100 mg, 100 mg QD, 12 week, read-out: Trough Plasma Concentrations, Mean (SD)): 178 ng/mL
concentration at 12 week ([1]; 100 mg, 100 mg QD, 12 week, read-out: Trough Plasma Concentrations, Median): 175 ng/mL
concentration at 2 week ([1]; 150 mg, 150 mg QD, 2 week, BLQ (<2.00 ng/mL) set to 0, read-out: Trough Plasma Concentrations, Min-Max): 1.47 to 1110 ng/mL
concentration at 2 week ([1]; 150 mg, 150 mg QD, 2 week, read-out: Trough Plasma Concentrations, Mean (SD)): 335 ng/mL
concentration at 2 week ([1]; 150 mg, 150 mg QD, 2 week, read-out: Trough Plasma Concentrations, Median): 300 ng/mL
concentration at 4 week ([1]; 150 mg, 150 mg QD, 4 week, BLQ (<2.00 ng/mL) set to 0, read-out: Trough Plasma Concentrations, Min-Max): 0 to 748 ng/mL
concentration at 4 week ([1]; 150 mg, 150 mg QD, 4 week, read-out: Trough Plasma Concentrations, Mean (SD)): 309 ng/mL
concentration at 4 week ([1]; 150 mg, 150 mg QD, 4 week, read-out: Trough Plasma Concentrations, Median): 277 ng/mL
concentration at 8 week ([1]; 150 mg, 150 mg QD, 8 week, BLQ (<2.00 ng/mL) set to 0, read-out: Trough Plasma Concentrations, Min-Max): 0 to 743 ng/mL
concentration at 8 week ([1]; 150 mg, 150 mg QD, 8 week, read-out: Trough Plasma Concentrations, Mean (SD)): 272 ng/mL
concentration at 8 week ([1]; 150 mg, 150 mg QD, 8 week, read-out: Trough Plasma Concentrations, Median): 277 ng/mL
concentration at 12 week ([1]; 150 mg, 150 mg QD, 12 week, BLQ (<2.00 ng/mL) set to 0, read-out: Trough Plasma Concentrations, Min-Max): 0 to 992 ng/mL
concentration at 12 week ([1]; 150 mg, 150 mg QD, 12 week, read-out: Trough Plasma Concentrations, Mean (SD)): 312 ng/mL
concentration at 12 week ([1]; 150 mg, 150 mg QD, 12 week, read-out: Trough Plasma Concentrations, Median): 246 ng/mL
concentration at 2 week ([1]; 200 mg, 200 mg QD, 2 week, BLQ (<2.00 ng/mL) set to 0, read-out: Trough Plasma Concentrations, Min-Max): 5.01 to 2210 ng/mL
concentration at 2 week ([1]; 200 mg, 200 mg QD, 2 week, read-out: Trough Plasma Concentrations, Mean (SD)): 521 ng/mL
concentration at 2 week ([1]; 200 mg, 200 mg QD, 2 week, read-out: Trough Plasma Concentrations, Median): 436 ng/mL
concentration at 4 week ([1]; 200 mg, 200 mg QD, 4 week, BLQ (<2.00 ng/mL) set to 0, read-out: Trough Plasma Concentrations, Min-Max): 0 to 1570 ng/mL
concentration at 4 week ([1]; 200 mg, 200 mg QD, 4 week, read-out: Trough Plasma Concentrations, Mean (SD)): 450 ng/mL
concentration at 4 week ([1]; 200 mg, 200 mg QD, 4 week, read-out: Trough Plasma Concentrations, Median): 402 ng/mL
concentration at 8 week ([1]; 200 mg, 200 mg QD, 8 week, BLQ (<2.00 ng/mL) set to 0, read-out: Trough Plasma Concentrations, Min-Max): 0 to 1660 ng/mL
concentration at 8 week ([1]; 200 mg, 200 mg QD, 8 week, read-out: Trough Plasma Concentrations, Mean (SD)): 402 ng/mL
concentration at 8 week ([1]; 200 mg, 200 mg QD, 8 week, read-out: Trough Plasma Concentrations, Median): 392 ng/mL
concentration at 12 week ([1]; 200 mg, 200 mg QD, 12 week, BLQ (<2.00 ng/mL) set to 0, read-out: Trough Plasma Concentrations, Min-Max): 0 to 1170 ng/mL
concentration at 12 week ([1]; 200 mg, 200 mg QD, 12 week, read-out: Trough Plasma Concentrations, Mean (SD)): 354 ng/mL
concentration at 12 week ([1]; 200 mg, 200 mg QD, 12 week, read-out: Trough Plasma Concentrations, Median): 323 ng/mL
hyperalgesia (paw withdrawal threshold to mechanical stimulus) (CIA model rats): attenuated hyperalgesia
